Experimental data as given in patent publication US20180092908A1, “SMALL MOLECULE OXIDIZERS OF PDI AND THEIR USE” (THE TRUSTEES OF COLUMBIA UNIVERSITY IN THE CITY OF NEW YORK, priority 2015, published 2018).
Where two headings read alike, the source gives them in different places.

Key:
[1] = molecular target: T1, human catalytic PDI A1 a domain (PDIa) (Homo sapiens, UniProt P07237); experiment: Isothermal titration calorimetry (ITC) binding to PDIa
T1 construct: made in house; host or cells: Escherichia coli BL21-Gold (DE3)
T1 sequence (P07237 with tags, fused parts or gaps): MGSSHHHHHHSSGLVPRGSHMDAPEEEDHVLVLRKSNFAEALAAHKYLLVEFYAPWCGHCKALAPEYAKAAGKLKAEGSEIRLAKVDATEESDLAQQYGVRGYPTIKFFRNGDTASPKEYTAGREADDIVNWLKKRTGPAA
Method: All ITC experiments were carried out at 25° C. on MicoCal Auto-ITC200 system (GE Healthcare). Reduced PDIa was dialyzed into ITC buffer (20 mM sodium phosphate buffer pH 7.8) and loaded into a sample cell at 40 μM concentration. The compound solution was loaded into a syringe at 400 μM in the same ITC buffer with a final DMSO concentration at 0.4% (v/v). ITC titration experiments were carried out at 25° C. with 19 injections, 2 μl per injection, and 180 seconds between each injection. The reference cell power was set to 5 μcal/sec. A control experiment was performed for each compound, where each compound was titrated into buffer to account for heat released due to dilution. This background was subtracted from test data before a final dissociation constant was obtained. Data were analyzed using a one-site binding model in Origin 7.1 software. […] Gibbs free energy, ΔG, was calculated from equation ΔG=ΔH−TΔS. All other parameters, Ka, n, ΔH, ΔS, were determined directly from the titration data.
For ITC experiments with 16F16 pre-treatment, 40 μM PDIa (after dialysis into ITC buffer) was treated with 200 μM 16F16 for 12-15 hours at 4° C. Next day the whole solution was loaded into the sample cell. LOC14 at 400 μM in ITC buffer was loaded into syringe and titrated into PDIa+16F16 loaded cell. For control experiments, ITC buffer with 200 μM 16F16 was used in the cell, while 400 μM LOC14 in ITC buffer was used in the syringe.
The binding mode of LOC14 to PDIa was next investigated using isothermal titration calorimetry (ITC). ITC measures the heat released or absorbed during a biomolecular interaction. It is a direct analytical method for determining the binding and thermodynamic parameters, such as reaction stoichiometry (n), binding constants (Ka and Kd), enthalpy (ΔH), entropy (ΔS), and free energy (ΔG) of an interaction.

PC12 mHTT^Q103 cells = experiment: Rescue of PC12 cells from mHTT^Q103 induced cell death (Alamar blue viability); format: cell-based; conditions: Rattus norvegicus, PC-12; Table 5; read-out: Cell Viability Assay EC50
Description: PC12 mHTT^Q103 cells were a gift from Erik S. Schweitzer (UCLA School of Medicine, Los Angeles, Calif.). These cells are stably transfected with the first exon of human HTT gene containing the pathogenic 103 CAG/CAA repeat expansion, under the control of the ecdysteroid promoter (Aiken et al., 2004). The plasmid also contains a Bombyx mori ecdysone receptor gene fused at N-terminal with VP16 transactivation domain (Suhr et al., 1998; Vilaboa et al., 2011). Addition of the ecdysone analog, tebufenozide, to the cell culture medium is used to initiate the transcription of mutant HTT (Aiken et al., 2004).
PC12 mHTT^Q103 cells were cultured in DMEM containing 4.5 g/I glucose, 25 mM HEPES, sodium pyruvate, and no L-glutamine (Mediatech, cat. no. 15-018-CV), supplemented with 10% (v/v) Cosmic Calf serum, 2 mM L-glutamine, 100 units/mL of penicillin-streptomycin, and 0.5 mg/ml active geneticin. Cells were grown at 37° C., 9.5% CO2, and the medium was replaced with fresh medium every 2-3 days. To induce mHTT^Q103 expression for experiments, tebufenozide, a gift from Lynne Moore and Fred H. Gage (The Salk Institute for Biological Studies, La Jolla, Calif.), was added to the medium at 200 nM final concentration from 1 mM stock in 85% ethanol.
LOC mother plates with compounds at 4 mg/ml were thawed and spun down (1000 rpm, 20° C., 1 min) prior to use. Biomek FX (Beckman Coulter) robotic liquid dispenser was used to handle all liquid transferring and mixing. […] Two fold serial dilution was performed across five daughter plates by transferring 50 μl of compounds (at […]) from the D1 plate into 50 μl of PC12 medium in daughter plate D2, mixing, and then repeating the process for the remaining three plates. Daughter plate D1 with compounds at […], daughter plate D3 with compounds at 20 μl/ml and daughter plate D5 with compounds at 5 μl/ml were then used for the screen. Assay plates were set up by seeding tebufenozide-induced PC12 mHTT^Q103 cells into 384-well black, clear-bottom plates (Corning Inc. cat. no. 3712) at a density of 7,500 cells per well in 57 μl PC12 medium without geneticin. Three microliters of compound from the daughter plates (D1, D3, and D5) were added to the assay plates for a final compound concentration of 4 μl/ml, 1 μl/ml, and 0.25 μl/ml. Four wells containing uninduced PC12 mHTT^Q103 cells and four wells containing medium only, were also included on each plate as controls. The assay plates were incubated at 37° C., 9.5% CO2 for 48 hours. Twenty microliters of 40% Alamar blue (Life Technologies cat. no. DAL1100) solution in PC12 medium was added to each well (1:10 final dilution) and the plates were incubated for an additional 12-24 hours at 37° C., 9.5% CO2. Alamar blue fluorescence was read on a fluorescence plate reader (PerkinElmer Victor3) with 530 nm excitation filter and 590 nm emission filter. Each compound concentration was tested in triplicate.
The follow-up testing of primary screen hits was performed in a similar way. Fresh powder stocks of primary hits were re-ordered from vendors, dissolved in DMSO and tested in a two-fold serial dilution across 10 wells in both tebufenozide-induced and uninduced PC12 mHTT^Q103 cells. Dose-response curves were plotted as mean±SD and fit to either four-parameter sigmoidal (for uninduced cells) or bell-shaped (induced) function using Prism (GraphPad Software).
A cascade of two assays was used, involving both a phenotypic high-throughput screening (HTS) assay and an in vitro PDI reductase assay, to identify neuroprotective PDI-inhibiting compounds. […] Alamar blue was used as a fluorescent readout for viability after 48 hours of compound treatment and mHTT^Q103 induction. […] All the candidate hit compounds were re-tested in a two-fold dilution series.

[2] = molecular target: T2, recombinant catalytic a domain of human PDI A1 (PDIa) (Homo sapiens, UniProt P07237); experiment: Insulin aggregation assay (PDIa reductase activity); format: biochemical; conditions: Table 5
T2 construct: made in house; host or cells: Escherichia coli BL21-Gold (DE3)
T2 sequence (P07237 with tags, fused parts or gaps): as above
Description: In this insulin aggregation assay (Xu et al., 2012; Jasuja et al., 2012; Khan et al., 2011; Smith et al., 2004), PDIa reduced the two disulfide bonds between the α- and β-chains of insulin, causing the β-chain to aggregate and precipitate, resulting in an increase in absorbance at 650 nm.
To investigate the mode of binding further and to determine whether the binding was reversible or irreversible, the recovery of enzymatic activity of PDIa after dilution of pre-formed concentrated PDIa-LOC14 complexes was analyzed. LOC14 (750 μM) was incubated with a concentrated solution of PDIa (500 μM). The mixture was then diluted 100-fold and PDI's enzymatic activity was measured in the insulin reduction assay. As a control, the same procedure was also performed on the sample containing an irreversible inhibitor, 16F16 (16F16 at 750 μM and PDIa at 500 μM). […] This illustrated that unlike 16F16, LOC14 binding to PDIa is reversible.

[3] = PDIa, Table 5, read-out: ITC Assay KD

| Structure (SMILES) | EC50 (PC12 mHTT^Q103 cells) [nM] | ITC Assay KD ([1]; PDIa, Table 5) | Insulin Assay (either active or inactive) [2] | also measured |
| --- | --- | --- | --- | --- |
| O=c1[nH]sc2ccccc12 [BIT fragment, 1,2,Benzisothiazol-3-one] | – | – | – | Kd ([1]; PDIa, Table 4, read-out: ITC KD): 142 nM |
| O=C(c1ccccc1)n1sc2ccccc2c1=O [LC-11] | > 50000 | KD = N/A irreversible or not | not active | – |
| O=c1c2ccccc2sn1CN1CCOCC1 [LC-18] | 547 | – | Active | Kd [1, 3]: 253 nM |
| O=C(NCc1ccc(Br)cc1)c1ccccc1S [LC-20] | > 50000 | KD = N/A irreversible or not active | not active t | – |
| O=C(Nc1ccc(N2CCOCC2)cc1)c1ccccc1S [LC-21] | 696 | KD = N/A irreversible or not active | not active | – |
| O=c1c2ccccc2sn1CN1CCN(Cc2ccccc2)CC1 [LC-22] | 310 | – | Active | Kd [1, 3]: 173 nM |
| O=C(Nc1ccc(Cc2ccccc2)cc1)c1ccccc1S [LC-23] | 3880 | KD = N/A irreversible or not active | not active | – |
| O=c1c2ccccc2sn1-c1ccc(Cc2ccccc2)cc1 [LC-25] | 1590 | KD = N/A irreversible or not active | not active | – |
| O=c1c2ccccc2sn1Cc1ccc(Br)cc1 [LC-26] | 778 | KD = N/A irreversible or not active | not active | – |
| C[C@@H](NC(=O)c1ccccc1S)c1ccccc1 [LC-28] | 808 | KD = N/A irreversible or not active | not active | – |
| C[C@H](c1ccccc1)n1sc2ccccc2c1=O [LC-29] | 519 | – | Active | Kd [1, 3]: 658 nM |
| O=C(Nc1cccc(F)c1)c1ccccc1S [LC-30] | 2990 | KD = N/A irreversible or not active | not active | – |
| O=c1c2ccccc2sn1-c1cccc(F)c1 [LC-31] | 1760 | KD = N/A irreversible or not | not active | – |
| COCCn1sc2ccccc2c1=O [LC-32] | 700 | – | Active | Kd [1, 3]: 158 nM |
| O=C(Nc1ccc(Oc2ccccc2)cc1)c1ccccc1S [LC-33] | 2940 | KD = N/A irreversible or not active | not active | – |
| O=c1[nH]sc2c(Cl)cccc12 [LC-38] | – | KD = N/A irreversible or not active | not active | – |
| O=C(C1CC1)N1CCN(Cn2sc3c(Cl)cccc3c2=O)CC1 [LC-39] | – | KD = N/A irreversible or not active | not active | – |
| O=c1[nH]sc2c(C(F)(F)F)cccc12 [LC-41] | – | KD = N/A irreversible or not active | not active | – |
| O=C(C1CC1)N1CCN(Cn2sc3c(C(F)(F)F)cccc3c2=O)CC1 [LC-42] | – | KD = N/A irreversible or not active | not active | – |
| NC(=O)c1cccc(C(F)(F)F)c1SSc1c(C(N)=O)cccc1C(F)(F)F [LC-45] | – | KD = N/A irreversible or not active | not active | – |
| O=c1ssc2ccccc12 [LC-48] | – | – | not active | – |
| S=c1ssc2ccccc12 [LC-49] | – | – | not active | – |
| O=c1c2cccnc2sn1CCN1CCCCC1 [LC-54] | – | – | Active | – |
| O=c1c2cccnc2sn1CCN1CCOCC1 [LC-55] | – | – | Active | – |
| O=c1c2cccnc2sn1CCC1CCNCC1 [LC-56] | – | – | Active | – |
| Cc1nnc2s[nH]c(=O)c2c1C [LC-57] | 12200 | – | Active | – |
| C[C@H](c1ccccc1)n1sc2ncccc2c1=O [LC-58] | – | – | Active | – |
| O=C(C1CC1)N1CCN(Cn2oc3ccccc3c2=O)CC1 [Oxy-LOC14, 2-((4-(cyclopropanecarbonyl)piperazin-1-yl)methyl)benzo[d]isoxazol-3(2H)-one] | – | – | – | loss in binding affinity compared to LOC14 ([1]; ITC, PDIa): 35 fold; Kd ([1]; reduced PDIa 40 μM, compound 400 μM, 25° C., read-out: dissociation constant (Kd)): 2430 nM |
